Ends that are not written are not given here.
Tests used:
[1] = tested on: HLA-A2 positive breast cancer cell line MDA-MB-231; test: 51Cr-release cytotoxicity assay with bcl208-isolated T cells; format: cell-based, human; conditions: enriched bcl208 reactive T cells, Bcl-2 expressing
HLA-A2 = target: T1, HLA-A2 (Homo sapiens, UniProt P04439, D140Y/D185E/D98H/E176V/E277Q/G131W/G231S/I119V/I121R/I166T/I218V/L300P/L318F/N151K/N90K/P208A/P217A/Q86G/Q94H/R138H/R169H/T345S); test: Assembly assay for peptide binding to MHC class I molecules (stabilisation of HLA from TAP-deficient T2 cells); conditions: recovery of HLA-A2 measured at 50, 5, 0.5, 0.05 μM peptide; read-out: C50 (concentration of the peptide required for half maximal binding to HLA-A2)
T1 construct: empty HLA molecules released upon cell lysis, from the TAP-deficient cell line T2; endogenous in cells; host or cells: T2 (TAP-deficient cell line), metabolically labelled with [35S]-methionine and lysed
Description: This assembly assay is carried out as described previously (2), and it is based on stabilisation of the HLA molecule after loading of peptide to the peptide transporter deficient cell line T2. Subsequently, correctly folded stable HLA heavy chains are immunoprecipitated using conformation dependent antibodies and the peptide binding is quantitated.
The binding affinity of the synthetic peptides (Invitrogen, Carlsbad, Calif., USA) to HLA-A2 molecules, metabolically labelled with [^35S]-methionine, was measured in the assembly assay, as described previously. The assay is based on peptide-mediated stabilisation of empty HLA molecules released upon cell lysis, from the TAP-deficient cell line T2. Stably folded HLA-molecules were immune-precipitated using the HLA class I-specific, conformation-dependent mAb W6/32, and separated by isoelectric focusing (IEF) gel electrophoresis. MHC heavy chain bands were quantified using the ImageGauge Phosphorimager program (FUJI photo film Co., Carrollton, Tex., USA). The intensity of the band is directly related to the amount of peptide-bound class I MHC complex recovered during the assay. Subsequently, the extent of stabilisation of HLA-A2 is directly related to the binding affinity of the added peptide. The recovery of HLA-A2 was measured in the presence of 50, 5, 0.5, 0.05 μM of the relevant peptide. The C50 value was calculated for each peptide as the peptide concentration sufficient for half maximal stabilisation.
The amino acid sequence of the Bcl-2 protein was screened for the most probable HLA-A2 nona- and decamer peptide epitopes, using the main HLA-A2 specific anchor residues (2). […] The assembly assay is based on stabilisation of the class I molecule after loading of different concentrations of peptide to the TAP-deficient cell line T2. Subsequently correctly folded stable MHC heavy chains are immunoprecipitated using conformation-dependent antibodies.

[2] = tested on: HLA-A2 negative breast cancer cell line ZR75-1
[3] = tested on: peptide epitope-specific interferon-γ releasing effector cells in PBL; test: IFN-γ ELISPOT on PBL stimulated once in vitro with peptide; format: cell-based, human
Description: To extend the sensitivity of the ELISPOT assay, PBL were stimulated once in vitro prior to analysis. At day 0, PBL or crushed lymph nodes were thawed and plated in 2 ml/well at a concentration of 2×10^6 cells in 24-well plates (Nunc, Denmark) in X-vivo medium (Bio Whittaker, Walkersville, Md.), 5% heat-inactivated human serum, and 2 mM of L-glutamine in the presence of 10 μM of peptide. Two days later 20 IU/ml recombinant interleukin-2 (IL-2) (Chiron, Ratingen, Germany) was added to the cultures. The cultured cells were tested for reactivity in the ELISPOT on day 12.
The ELISPOT assay was used to quantify peptide epitope-specific interferon-γ releasing effector cells as described previously (4). Briefly, nitrocellulose bottomed 96-well plates (MultiScreen MAIP N45, Millipore, Hedehusene, Denmark) were coated with anti-IFN-γ antibody (1-D1K, Mabtech, Nacka, Sweden). The wells were washed, blocked by X-vivo medium, and cells added in duplicates at different cell concentrations. Peptides were then added to each well and the plates were incubated overnight. The following day, media was discarded and the wells were washed prior to addition of biotinylated secondary antibody (7-B6-1-Biotin, Mabtech). The plates were incubated for 2 hours, washed and Avidin-enzyme conjugate (AP-Avidin, Calbiochem, Life Technologies) was added to each well. Plates were incubated at RT for 1 hour and the enzyme substrate NBT/BCIP (Gibco, Life Technologies) was added to each well and incubated at RT for 5-10 min. The reaction was terminated by washing with tap-water upon the emergency of dark purple spots. The spots were counted using the ImmunoSpot® Series 2.0 Analyzer (CTL Analyzers, LLC, Cleveland, US) and the peptide specific CTL frequency could be calculated from the numbers of spot-forming cells. All assays were performed in triplicates for each peptide antigen.

T2 cells = test: 51Cr-release cytotoxicity assay with bcl208-isolated T cells; format: cell-based, human; conditions: bcl208 reactive T cells enriched from a breast cancer patient, day 5
[4] = tested on: antigen-specific CTL in PBL; test: Granzyme B (GrB) ELISPOT; format: cell-based, human
Description: The Granzyme B (GrB) ELISPOT assay was used for measuring antigen-specific CTL cytotoxicity as described. Briefly, nitrocellulose bottomed 96-well plates (MultiScreen MAIP N45, Millipore) were coated with GrB Capture Antibody (BD Biosciences, Brondby, Denmark). The wells were washed and blocked by X-vivo medium with 5% human serum. The cells were added at different cell concentrations. T2 cells and peptides were then added to each well and the plates were incubated 4 hours, medium was discarded and the wells were washed prior to addition of GrB Detection Antibody (BD Biosciences). The plates were incubated for 2 hours, washed and Avidin horseradish peroxidase (BD Biosciences) was added to each well. Plates were incubated at RT for 1 hour AEC Substrate Reagent (BD Biosciences) was added to each well and incubated at RT for 5-10 min. The reaction was terminated by washing with tap-water upon the emergency of red spots. The spots were counted and the peptide specific CTL frequency was calculated like for the INF-γ ELISPOT. All assays were performed in duplicate or triplicates for each peptide antigen.

[5] = PBL from 15 HLA-A2 positive breast cancer patients

EC50 (HLA-A2): 7 µM
Sequence: PLFDFSWLSL [bcl208]
lysis of MDA-MB-231 cells [1]: efficiently lysed
cytotoxicity against ZR75-1 cells [2]: no cytotoxicity was observed
healthy individuals with CTL response ([3]; 12 healthy HLA-A2 positive individuals): one
patients with spontaneous CTL response [3, 5]: twelve
patients with spontaneous CTL response (%) [3, 5]: ≈ 80%
CLL patients with Bcl-2 response ([3]; ten HLA-A2 positive CLL patients, reactivity against bcl208 and bcl214, not broken down by peptide): five
AML patients with Bcl-2 response ([3]; three AML patients, reactivity against bcl208 and bcl214, not broken down by peptide): two
pancreatic cancer patients with CTL response ([3]; two HLA-A2 positive pancreatic cancer patients): both
killing of T2 cells loaded with peptide versus unloaded (T2 cells): only T2 cells pulsed with bcl208 were killed
GrB release in controls ([4]; breast cancer patient no. 16 and healthy control h1): no GrB release was detected
recognition of peptide-pulsed T2 cells by CTL clones (GrB ELISPOT) ([4]; clones from HLA-A2/bcl208 bead-isolated cells, data not shown): Several of these clones showed specific recognition

Reference: US7842294B2, “Proteins belonging to the Bcl-2 family and fragments thereof, and their use in cancer patients” (Survac APS, priority 2003, dated 2010)
